# Where two headings read alike, the source gives them in different places.
# Assays:
# [1] = Liver microsomal stability, rat liver microsomes; type: in vitro ADME; settings: for Fh, parallel-tube model / Fh, well-stirred model / CLint scaled at 1 µM: rat liver microsome, pentostatin −; for CLint scaled at 1 µM: rat, liver microsomes
# Method: Human and rat liver microsomes were used in the experiment following previously reported methods[49],[50]. Microsomes were used at 0.5 mg protein/mL and cordycepin was tested at 1 µM. […] The reaction mixture was incubated in the shaking incubator at 37 °C for 30 min with sampling every 10 min. The results of intrinsic clearance and the fraction that escapes hepatic metabolism (by both well-stirred and parallel-tube models) were calculated by previously reported equations and physiological parameters[50]–[52]. The experiments were performed in triplicates.
# (§1) Samples from studies of plasma stability, protein binding, biorelevant solubility and liver microsomal stability were subjected to liquid-liquid extraction and HPLC-UV analysis. To 100 µL of sample, internal standard (2′-deoxyadenosine) was spiked at 10 µg/mL and 300 µL of 0.1 M NaOH was added. Extraction solvent (3 mL) of ethyl acetate-isopropyl alcohol (85:15, v/v) was added and vortex-mixed for 10 min. Samples were then centrifuged at 1160 g for 5 min and the supernatant was transferred and dried under N2 gas. Dried samples were reconstituted with 100 uL of deionised distilled water (DDW) and 40 µL was injected into the HPLC-UV. The HPLC-UV setup was adopted from a validated method[22] with addition of a gradient scheme to elute the impurities from samples. Waters Alliance 2695 module with Waters 996 PDA detector was used for the HPLC-UV system with Capcell Pak C18 3 µm, 4.6 × 150 mm as the stationary phase. Mobile phase was a mixture of acetonitrile (A) and DDW (B) at flow rate 0.8 mL/min with a gradient scheme of the following: 0–9 min, B 94%; 9–14 min, B decreased to 20%; 14–24 min, B 20%; 24–26 min, B increased to 94%; and 26–35 min, B 94%. Calibration curves were constructed at a range of 10 – 20000 ng/mL and chromatograms were obtained at 259 nm of wavelength.
# [2] = Plasma protein binding, ultrafiltration, rat plasma; type: in vitro ADME; settings: read-out: fraction unbound (Fub) in plasma
# Method: (§2) Cordycepin was spiked into the plasma to give concentrations of 100, 500, 1000 and 5000 ng/mL, and the samples (300 µL) were incubated in the shaking incubator at 250 rpm and 37 °C for 1 h. Following incubation, 100 µL was withdrawn and analysed for Ct. The remaining sample was transferred to a filter device (Amicon Ultra-0.5 Centrifugal Filter Units, MWCO 3000, Merck Millipore, Cork, Ireland) and was centrifuged at 14,000 g for 10 min at room temperature. Filtrate was collected and analysed for Cf. The fraction unbound in plasma (Fub) was calculated by the equation: Cf/Ct × 100 = Fub. Non-specific binding of cordycepin to the filter device was tested at the same concentration range using phosphate buffered saline (PBS) instead of plasma. Experiments were conducted in quadruplicates.
# (§3) Samples from studies of plasma stability, protein binding, biorelevant solubility and liver microsomal stability were subjected to liquid-liquid extraction and HPLC-UV analysis. To 100 µL of sample, internal standard (2′-deoxyadenosine) was spiked at 10 µg/mL and 300 µL of 0.1 M NaOH was added. Extraction solvent (3 mL) of ethyl acetate-isopropyl alcohol (85:15, v/v) was added and vortex-mixed for 10 min. Samples were then centrifuged at 1160 g for 5 min and the supernatant was transferred and dried under N2 gas. […]
# Caco-2 cells = assay: Caco-2 permeability; type: in vitro ADME
# Method: (§4) Caco-2 permeability assays were conducted following previously reported methods with 21-day maintenance on the Corning 24-well Transwell® (Fisher Scientific, Loughborough, UK)[48]. […] Both directions of apical-to-basolateral and basolateral-to-apical were tested. […] The experiments were conducted in triplicates.
# (§5) Samples from Caco-2 permeability, in vitro determination of CordyTP formation and in vivo experiments were subjected to protein precipitation followed by LC-MS/MS analysis. To 50 µL of rat plasma sample, 150 µL of internal standard solution (1.67 µg/mL 2-chloroadenosine in methanol) was added. The samples were then vortex-mixed for 10 s and were centrifuged for 3 min at 17949 g. Supernatant (20 µL) was collected and diluted 10-fold with DDW before injection into the LC-MS/MS for analysis of cordycepin and 3′-deoxyinosine. For analysis of CordyTP, the supernatant was filtered using filter tubes mentioned above and injected without dilution. Tissue samples were homogenised using Bullet Blender Gold (Next Advance, Inc., Troy, NY) in methanol (1:3 w/v) and centrifuged for 3 min at 17949 g. The supernatant was filtered and injected for analysis of CordyTP or diluted 10-fold with DDW for analysis of cordycepin and 3′-deoxyinosine. The LC-MS/MS system was a API4000 QTrap (AB Sciex, Warrington, UK) equipped with HPLC setup of SCL10Avp controller, LC10ADvp pump and SILHTC autosampler (Shimadzu, Milton Keynes, UK). Three different methods were utilised for each compound and multiple reaction monitoring parameters of the MS/MS conditions are shown in Table 1. The HPLC conditions including stationary phases and specific mass spectrometry parameters are shown in Supplementary Information 2. The LC-MS/MS method for cordycepin was fully validated in terms of accuracy, precision, sensitivity, selectivity, linearity and sample storage stability in accordance with the Guidance for Industry, Bioanalytical Method Validation, (2018) published by the US FDA (refer to Supplementary Information 3 for validation procedures and results)[53].
# Caco-2 permeability = type: in vitro ADME; settings: human, Caco-2; read-out: apparent permeability coefficient (Papp), A to B
# Method: as §4, §5
# [3] = Biorelevant solubility (FaSSGF, FaSSIF, FeSSIF); type: physicochemical; settings: thermodynamic from solid, compared with reported water solubility
# Method: The three biorelevant fluids of fasted state simulated gastric fluid (FaSSGF, pH 1.6), fasted state simulated intestinal fluid (FaSSIF, pH 6.5) and fed state simulated intestinal fluid (FeSSIF, pH 5.0) were prepared according to previously reported compositions. The test mixtures containing biorelevant fluids and excessive amount of cordycepin were shaken at 250 rpm, 37 °C for 2 h in the shaking incubator. The mixtures were then filtered using Costar Spin-X Centrifuge Tubes (Fisher Scientific, Loughborough, UK) at 2400 g for 5 min. The filtrate was subjected to analysis by HPLC-UV. The experiments were conducted in quadruplicates.
# as §1
# [4] = Plasma stability of cordycepin in rat plasma; type: in vitro ADME; settings: read-out: ex vivo stability half-life (t1/2) in plasma
# Method: Stability of cordycepin in plasma was tested using human and rat plasma by following a previously reported method with minor modifications. Cordycepin was spiked into the plasma at 10 µM and the samples were incubated in a shaking incubator (Thermo Scientific MaxQ4000, Waltham, MA, USA) at 37 °C and shaken at 250 rpm. Samples (100 µL) were withdrawn at predetermined time points. […] The experiments were performed in triplicates.
# as §1, with “Mobile phase was a mixture of acetonitrile (A) and DDW (B) at flow rate 0.8 mL/min with a gradient scheme of the following: 0–9 min, B 94%; 9–14 min, B decreased to 20%; 14–24 min, B 20%; 24–26 min, B increased to 94%; and 26–35 min, B 94%. Calibration curves were constructed at a range of 10 – 20000 ng/mL and chromatograms were obtained at 259 nm of wavelength.” left out
# [5] = set-up: method as in PMID 28560504; settings: previously reported; cited from earlier work
# [6] = Plasma protein binding, ultrafiltration, human plasma; type: in vitro ADME; settings: read-out: fraction unbound (Fub) in plasma
# Method: as §2, §3
# [7] = text summary over rat and human liver microsomes, without pentostatin
smiles,measurement,setting,value
"Nc1ncnc2c1ncn2[C@@H]1O[C@H](CO)C[C@H]1O [cordycepin, 3′-deoxyadenosine]","Fh, parallel-tube model",[1]; NADPH +,0.1 ± 0.0%
same,"Fh, well-stirred model",[1]; NADPH +,12.4 ± 0.9%
same,"Fh, parallel-tube model",[1]; NADPH −,0.1 ± 0.1%
same,"Fh, well-stirred model",[1]; NADPH −,12.5 ± 1.5%
same,CLint scaled at 1 µM,[1]; NADPH +,392 ± 31.3 mL/min/kg
same,CLint scaled at 1 µM,[1]; NADPH −,390 ± 51.4 mL/min/kg
same,"Fh calculated from CLint, parallel-tube model",[1]; [7],~0%
same,"Fh calculated from CLint, well-stirred model",[1]; [7],10–13%
same,fraction unbound at 1 h,[2],> 0.8
same,cordycepin remaining in donor chamber at 120 min,Caco-2 cells; applied to apical side with pentostatin,remained stable
same,cordycepin remaining in donor chamber at 120 min,Caco-2 cells; applied to apical side without pentostatin,significantly degraded
same,cordycepin remaining in donor chamber at 120 min,Caco-2 cells; applied to basolateral side without pentostatin,remained stable
same,permeation of cordycepin,"Caco-2 cells; cordycepin 200 µM without pentostatin, A to B and B to A",not detected
same,"Papp A→B at 120 min, 200 µM",Caco-2 permeability,0.11 ± 0.01 ×10⁻⁶ cm/s
same,solubility at 2 h,"[3]; FaSSGF, fassgf or other biorelevant, pH 1.6, 37 °C, read-out: solubility in FaSSGF",> 5000 µg/mL
same,solubility at 2 h,"[3]; FaSSIF, pH 6.5, 37 °C, read-out: solubility in FaSSIF",> 5000 µg/mL
same,solubility at 2 h,"[3]; FeSSIF, pH 5.0, 37 °C, read-out: solubility in FeSSIF",> 5000 µg/mL
same,half-life at 10 µM,[4],25 ± 0.7 min
same,solubility in water,[5],5000 ± 100 µg/mL
same,fraction unbound at 1 h,[6],> 0.8

# — publication PMC6823370, “A novel nucleoside rescue metabolic pathway may be responsible for therapeutic effect of orally administered cordycepin” (Scientific Reports, 2019)
